# Laboratory results published in BindingDB's records for doi:10.1021/jm00145a017 (1985).
# Experiment: Intrinsic affinity towards serotonin receptor from rat frontal cortex by displacement of [3H]spiperone.
row,SMILES,Ki [nM]
1,"FC(F)(F)c1ccc2c(c1)N1CCNCC1CC2 (stereo not drawn) [9-Trifluoromethyl-2,3,4,4a,5,6-hexahydro-1H-pyrazino[1,2-a]quinoline]",136
2,"Clc1cncc(N2CCNCC2)n1 [L-630,571]",6000
3,FC(F)(F)c1cccc(N2CCNCC2)c1 [TFMPP],298
